# Measurements from patent US20230255969A1, “TARGETING IMMUNE P[…] BY HIGHLY PATHOGENIC CORONAVIRUSES” (priority 2020, published 2023).
# System: bone marrow derived mast cells (BMMCs)
# Format: cell-based, C57Bl/6 mouse
structure (smiles),measurement,value
"O=C(O)c1cc(=O)c2c(OCC(O)COc3cccc4oc(C(=O)O)cc(=O)c34)cccc2o1 [cromolyn, 5-[3-(2-carboxy-4-oxochromen-5-yl)oxy-2-hydroxypropoxy]-4-oxochromene-2-carboxylic acid]",Mast cell degranulation in response to SARS-CoV-2 Spike protein (percentage degranulation),reduced
